Measured values as given in patent US6756402B2, “Cyclipostins, process for their preparation and use thereof” (Aventis Pharma Deutschland GmbH, priority 2000, dated 2004).
Like-named read-outs stand apart in the source and are kept apart here.

Tests used:
[1] = tested on: lipases; details: background statement on the known methyl analogue; cited from earlier work
[2] = biological target: T1, HSL from rats (Rattus norvegicus, UniProt P15304); experiment: Inhibition of HSL from rats with NBD as substrate; assay type: biochemical
T1 construct: from tissue; host or cells: rat
T1 sequence (P15304 1-768 isoform P15304-2): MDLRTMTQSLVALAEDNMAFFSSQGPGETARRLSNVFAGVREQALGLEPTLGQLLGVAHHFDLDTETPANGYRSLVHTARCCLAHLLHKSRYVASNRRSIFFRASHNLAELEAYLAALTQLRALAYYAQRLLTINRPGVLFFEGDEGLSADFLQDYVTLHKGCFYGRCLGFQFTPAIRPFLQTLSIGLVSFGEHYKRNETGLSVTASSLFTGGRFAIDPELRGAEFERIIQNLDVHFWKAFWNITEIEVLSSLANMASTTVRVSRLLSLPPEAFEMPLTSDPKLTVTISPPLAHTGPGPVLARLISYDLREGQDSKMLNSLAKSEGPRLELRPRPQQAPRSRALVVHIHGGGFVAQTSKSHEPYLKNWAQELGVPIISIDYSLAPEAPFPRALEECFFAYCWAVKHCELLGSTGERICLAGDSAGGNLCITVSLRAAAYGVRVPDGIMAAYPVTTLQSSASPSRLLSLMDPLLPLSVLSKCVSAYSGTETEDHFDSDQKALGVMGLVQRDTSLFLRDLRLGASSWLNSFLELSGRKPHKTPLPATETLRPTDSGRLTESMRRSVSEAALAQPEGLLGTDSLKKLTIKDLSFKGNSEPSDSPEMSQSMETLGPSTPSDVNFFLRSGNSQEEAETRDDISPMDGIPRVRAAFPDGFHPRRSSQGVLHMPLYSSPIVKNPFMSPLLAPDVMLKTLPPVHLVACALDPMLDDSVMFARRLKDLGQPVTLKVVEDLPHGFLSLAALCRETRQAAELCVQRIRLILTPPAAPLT

[3] = biological target: T2, hormone-sensitive lipase (HSL) (Rattus norvegicus, UniProt P15304); experiment: Inhibition of partially purified hormone-sensitive lipase (HSL) from rats, [3H]trioleoylglycerol substrate; assay type: biochemical
T2 construct: Isolated rat lipocytes were obtained from epididymal fatty tissue of nontreated male rats; from tissue; host or cells: rat epididymal fat tissue lipocytes (Wistar), partially purified
T2 sequence (P15304 1-768 isoform P15304-2): T1 sequence (P15304 1-768 isoform P15304-2)
Protocol: Isolated rat lipocytes were obtained from epididymal fatty tissue of nontreated male rats (Wistar, 220-250 g) by collagenase treatment according to published procedures (e.g., S. Nilsson et al., Anal. Biochem. 158:399-407 (1986); G. Fredrikson et al., J. Biol. Chem. 256, 6311-6320 (1981); H. Tornquist et al., J. Biol. Chem. 251:813-819 (1976)). The lipocytes from 10 rats were washed three times by flotation with 50 ml of homogenization buffer in each case ([…] TRIS/HCl, pH 7.4, 0.25 M sucrose, 1 mM EDTA, 1 mM DTT, 10 μg/ml of leupeptin, 10 μg/ml of antipain, 20 μg/ml of pepstatin) and finally taken up in 10 ml of homogenization buffer. The lipocytes were homogenized in a Teflon-in-glass homogenizer (Braun-Melsungen) by means of 10 strokes at 1500 rpm and 15° C. The homogenisate was centrifuged (Sorvall SM24 tubes, 5000 rpm, 10 min, 4° C.). The lower layer between the overlying fatty layer and the pellet was removed and the centrifugation was repeated. The lower layer resulting from this was centrifuged again (Sorvall SM24 tubes, 20000 rpm, 45 min, 4° C.). The lower layer was removed and treated with 1 g of heparin-sepharose (Pharmacia-Biotech, CL-6B, washed 5× with 25 mM Tris/HCl, pH 7.4, 150 mM NaCl). After incubation for 60 min at 4° C. (shaken at intervals of 15 min), the batch was centrifuged (Sorvall SM24 tubes, 3000 rpm, 10 min, 4° C.). The supernatant was brought to pH 5.2 by addition of acetic acid and incubated at 4° C. for 30 min. The precipitates were collected by centrifugation (Sorvall SS34, 12000 rpm, 10 min, 4° C.) and suspended in 2.5 ml of 20 mM Tris/HCl, pH 7.0, 1 mM EDTA, 65 mM NaCl, 13% of sucrose, 1 mM DTT, 10 μg/ml of leupeptin/pepstatin/antipain. The suspension was dialyzed overnight at 4° C. against 25 mM Tris/HCl, pH 7.4, 50% of glycerol, 1 mM DTT, 10 μg/ml of leupeptin, pepstatin, and antipain, and then applied to a hydroxylapetite column (0.1 g per 1 ml of suspension, equilibrated with 10 mM potassium phosphate, pH 7.0, 30% of glycerol, 1 mM DTT). The column was washed with four volumes of equilibration buffer at a flow rate of 20 to 30 ml/h. The HSL was eluted with a volume of equilibration buffer which contained 0.5 M potassium phosphate, then dialyzed (see above), and was concentrated 5 to 10 times by ultrafiltration (Amicon Diaflo PM 10 Filter) at 4° C. The partially purified HSL could be stored at −70° C. for 4 to 6 weeks.
For the preparation of the substrates, 25-50 μCi of [^3H]trioleoylglycerol (in toluene), 6.8 μMol of unlabeled trioleoylglycerol and 0.6 mg of phospholipid (phosphatidylcholine/phosphatidylinositol 3:1 w/v) were mixed, dried by means of N2 and then taken up in 2 ml of 0.1 M KPi (pH 7.0) by ultrasonic treatment (Branson 250, microtips, setting 1-2, 2×1 min at a 1 min interval). After addition of 1 ml of KPi and fresh ultrasonic treatment (4×30 sec on ice at 30 sec intervals), 1 ml of 20% BSA (bovine serum albumin) (in KPi) was added (final concentration of trioleoylglycerol at 1.7 mM). For the reaction, 100 μl of substrate solution were pipetted into 100 μl of HSL solution (HSL prepared as above, diluted in 20 mM KPi, pH 7.0, 1 mM EDTA, 1 mM DTT, 0.02% BSA, 20 μg/ml of pepstatin, 10 μg/ml of leupeptin) and incubated at 37° C. for 30 min. After addition of 3.25 ml of methanol/chloroform/heptane (10:9:7) and of 1.05 ml 0.1 M K2CO3, 0.1 M boric acid (pH 10.5), the batch was mixed well and finally centrifuged (800×g, 20 min). After phase separation, one equivalent of the upper phase (1 ml) was removed and the radioactivity was determined by liquid scintillation measurement.
Substances were generally tested in four independent batches. The inhibition of the enzymatic activity of the HSL by a test substance was determined by the comparison with a noninhibited control reaction. The calculation of the IC50 value was carried out by means of an inhibitory curve using at least 10 concentrations of the test substance. […]

[4] = Solubility (characterization of the isolated substance)
[5] = tested on: lipolysis in rat adipocytes; experiment: Inhibition of lipolysis in rat adipocytes; assay type: cell-based; details: Adipocyte
[6] = NBD (4-chloro-7-nitrobenzo-2-oxa-1,3-diazole) as substrate, read-out: concentrations inhibiting HSL from rats
[7] = trioleoylglycerol as substrate, read-out: IC50, inhibition of hormone-sensitive lipase from rats

CO[P@]1(=O)OC[C@H]2COC(=O)C2=C(C)O1 [CGA 134 736]
selective lipase-inhibiting properties [1]: no selective lipase-inhibiting properties

CCCCC(O)CCCCCCCCCCCOP1(=O)OCC2COC(=O)C2=C(C)O1 (stereo not shown) [Cyclipostin A]
IC50 [2, 6]: 4 to 10 nM | IC50 [3, 7]: 20 nM | solubility in oxygen-containing organic solvents [4]: soluble | solubility in water and petroleum ether [4]: only slightly soluble | IC50 [5]: ~200 nM

CCCC(O)CCCCCCCCCCCCO[P@]1(=O)OC[C@H]2COC(=O)C2=C(C)O1 (stereo partly shown) [Cyclipostin B]
solubility in oxygen-containing organic solvents [4]: soluble | solubility in water and petroleum ether [4]: only slightly soluble

CCC(=O)CCCCCCCCCCCCCOP1(=O)OC[C@H]2COC(=O)C2=C(C)O1 (stereo partly shown) [Cyclipostin F]
solubility in oxygen-containing organic solvents [4]: soluble | solubility in water and petroleum ether [4]: only slightly soluble

CCCCCCCCCCCCCCOP1(=O)OCC2COC(=O)C2=C(C)O1 (stereo not shown) [Cyclipostin N]
IC50 [3, 7]: 450 nM | solubility in oxygen-containing organic solvents [4]: soluble | solubility in water and petroleum ether [4]: only slightly soluble

CC1=C2C(=O)OCC2COP(=O)(OCCCCCCCCCCCCCC(C)C)O1 (stereo not shown) [Cyclipostin P2]
IC50 [2]: 4 to 10 nM | IC50 [3]: 40 nM | solubility in oxygen-containing organic solvents [4]: soluble | solubility in water and petroleum ether [4]: only slightly soluble | IC50 [5]: ~200 nM

CCCCCCCCCCCCCCCCOP1(=O)OCC2COC(=O)C2=C(C)O1 (stereo not shown) [Cyclipostin P]
IC50 [2]: 4 to 10 nM | IC50 [3]: 30 nM | solubility in oxygen-containing organic solvents [4]: soluble | solubility in water and petroleum ether [4]: only slightly soluble | IC50 [5]: ~200 nM

CC1=C2C(=O)OCC2COP(=O)(OCCCCCCCCCCCCC(C)C)O1 (stereo not shown) [Cyclipostin R2]
IC50 [3, 7]: 220 nM | solubility in oxygen-containing organic solvents [4]: soluble | solubility in water and petroleum ether [4]: only slightly soluble

CCCCCCCCCCCCCCCOP1(=O)OCC2COC(=O)C2=C(C)O1 (stereo not shown) [Cyclipostin R]
IC50 [2, 6]: 4 to 10 nM | IC50 [3, 7]: 10 nM | solubility in oxygen-containing organic solvents [4]: soluble | solubility in water and petroleum ether [4]: only slightly soluble | IC50 [5]: ~200 nM

CCCCCCCCCCCCCCCCOP1(=O)OCC2COC(=O)C2=C(CC)O1 (stereo not shown) [Cyclipostin S]
IC50 [3, 7]: 20 nM | solubility in oxygen-containing organic solvents [4]: soluble | solubility in water and petroleum ether [4]: only slightly soluble

CCCC1=C2C(=O)OCC2COP(=O)(OCCCCCCCCCCCCCC(C)C)O1 (stereo not shown) [Cyclipostin T2]
IC50 [3, 7]: 60 nM | solubility in oxygen-containing organic solvents [4]: soluble | solubility in water and petroleum ether [4]: only slightly soluble

CCCCCCCCCCCCCCCCOP1(=O)OCC2COC(=O)C2=C(CCC)O1 (stereo not shown) [Cyclipostin T]
IC50 [3, 7]: 200 nM | solubility in oxygen-containing organic solvents [4]: soluble | solubility in water and petroleum ether [4]: only slightly soluble
